Patent US20260297081A1, “COMPOUNDS AND METHODS OF TREATING CANCERS” (Cullgen Inc., priority 2023, published 2026)
pIC50: −log10 of the molar value.

system: MCF7 cells; assay: Anti-proliferation (viability) of MCF7 cells (Table 7, FIG. 2B); assay type: cell-based; conditions: Homo sapiens, MCF7, MCF7 cells, 3-6 days, 10-point serial dilution; read-out: GI IC50 in MCF-7

Structure (SMILES)	pIC50
CC(=O)c1c(C)c2cnc(Nc3ccc(CN4CCN(CC(=O)N5CCC(Nc6nc(NC(C)C)ccc6C(=O)Nc6cc(C)n(C)n6)CC5)CC4)cn3)nc2n(C2CCCC2)c1=O [CPD-421, 2-((1-(2-(4-((6-((6-acetyl-8-cyclopentyl-5-methyl-7-oxo-7,8-dihydropyrido[2,3-d]pyrimidin-2-yl)amino)pyridin-3-yl)methyl)piperazin-1-yl)acetyl)piperidin-4-yl)amino)-N-(1,5-dimethyl-1H-pyrazol-3-yl)-6-(isopropylamino)nicotinamide]	< 7.00
CC(=O)c1c(C)c2cnc(Nc3ccc(N4CC5(CN(CC(=O)N6CC7(CC(Nc8nc(NC(C)C)ccc8C(=O)Nc8ccc(N(C)C)nn8)C7)C6)C5)C4)cn3)nc2n(C2CCCC2)c1=O [CPD-423, 2-((2-(2-(6-(6-((6-acetyl-8-cyclopentyl-5-methyl-7-oxo-7,8-dihydropyrido[2,3-d]pyrimidin-2-yl)amino)pyridin-3-yl)-2,6-diazaspiro[3.3]heptan-2-yl)acetyl)-2-azaspiro[3.3]heptan-6-yl)amino)-N-(6-(dimethylamino)pyridazin-3-yl)-6-(isopropylamino)nicotinamide]	7.00 to 7.30
CC(=O)c1c(C)c2cnc(Nc3ccc(N4CC5(CN(CC(=O)N6CCC(Nc7nc(NC(C)C)ccc7C(=O)Nc7ccc(N(C)C)nn7)C6)C5)C4)cn3)nc2n(C2CCCC2)c1=O (centres unmarked) [CPD-424, 2-((1-(2-(6-(6-((6-acetyl-8-cyclopentyl-5-methyl-7-oxo-7,8-dihydropyrido[2,3-d]pyrimidin-2-yl)amino)pyridin-3-yl)-2,6-diazaspiro[3.3]heptan-2-yl)acetyl)pyrrolidin-3-yl)amino)-N-(6-(dimethylamino)pyridazin-3-yl)-6-(isopropylamino)nicotinamide]	< 7.00
CC(=O)c1c(C)c2cnc(Nc3ccc(N4CCC(N(C)CC(=O)N5CCC(Nc6nc(NC(C)C)ccc6C(=O)Nc6ccc(N(C)C)nn6)C5)CC4)cn3)nc2n(C2CCCC2)c1=O (centres unmarked) [CPD-426, 2-((1-(N-(1-(6-((6-acetyl-8-cyclopentyl-5-methyl-7-oxo-7,8-dihydropyrido[2,3-d]pyrimidin-2-yl)amino)pyridin-3-yl)piperidin-4-yl)-N-methylglycyl)pyrrolidin-3-yl)amino)-N-(6-(dimethylamino)pyridazin-3-yl)-6-(isopropylamino)nicotinamide]	> 7.30
CC(=O)c1c(C)c2cnc(Nc3ccc(N4CCC(N(C)CC(=O)N5CC(Nc6nc(NC(C)C)ccc6C(=O)Nc6ccc(N(C)C)nn6)C5)CC4)cn3)nc2n(C2CCCC2)c1=O [CPD-427, 2-((1-(N-(1-(6-((6-acetyl-8-cyclopentyl-5-methyl-7-oxo-7,8-dihydropyrido[2,3-d]pyrimidin-2-yl)amino)pyridin-3-yl)piperidin-4-yl)-N-methylglycyl)azetidin-3-yl)amino)-N-(6-(dimethylamino)pyridazin-3-yl)-6-(isopropylamino)nicotinamide]	> 7.30
CNc1ccc(C(=O)Nc2ccc(N(C)C)nn2)c(NC2CC(C(=O)NC3CCC4(CCN(c5ccc(Nc6ncc7c(C)c(C(C)=O)c(=O)n(C8CCCC8)c7n6)nc5)CC4)C3)C2)n1 (centres unmarked) [CPD-428, 2-((3-((8-(6-((6-acetyl-8-cyclopentyl-5-methyl-7-oxo-7,8-dihydropyrido[2,3-d]pyrimidin-2-yl)amino)pyridin-3-yl)-8-azaspiro[4.5]decan-2-yl)carbamoyl)cyclobutyl)amino)-N-(6-(dimethylamino)pyridazin-3-yl)-6-(methylamino)nicotinamide]	< 7.00
CNc1ccc(C(=O)Nc2ccc(N(C)C)nn2)c(NC2CCC(N(C)C(=O)CN3CCN(c4ccc(Nc5ncc6c(C)c(C(C)=O)c(=O)n(C7CCCC7)c6n5)nc4)CC3)C2)n1 (centres unmarked) [CPD-430, 2-((3-(2-(4-(6-((6-acetyl-8-cyclopentyl-5-methyl-7-oxo-7,8-dihydropyrido[2,3-d]pyrimidin-2-yl)amino)pyridin-3-yl)piperazin-1-yl)-N-methylacetamido)cyclopentyl)amino)-N-(6-(dimethylamino)pyridazin-3-yl)-6-(methylamino)nicotinamide]	< 7.00
CC(=O)c1c(C)c2cnc(Nc3ccc(N4CCN(C(C)CC(=O)N5CCC(Nc6nc(NC(C)C)ccc6C(=O)Nc6cn(C)c(C7CC7)n6)CC5)CC4)cn3)nc2n(C2CCCC2)c1=O (centres unmarked) [CPD-431, 2-((1-(3-(4-(6-((6-acetyl-8-cyclopentyl-5-methyl-7-oxo-7,8-dihydropyrido[2,3-d]pyrimidin-2-yl)amino)pyridin-3-yl)piperazin-1-yl)butanoyl)piperidin-4-yl)amino)-N-(2-cyclopropyl-1-methyl-1H-imidazol-4-yl)-6-(isopropylamino)nicotinamide]	7.00 to 7.30
[2H]C([2H])([2H])Nc1ccc(C(=O)Nc2ccc(N(C)C)nn2)c(NC2CC3(C2)CN(C(=O)CCN2CCN(c4ccc(Nc5ncc6c(C)c(C(C)=O)c(=O)n(C7CCCC7)c6n5)nc4)CC2)C3)n1 [CPD-432, 2-((2-(3-(4-(6-((6-acetyl-8-cyclopentyl-5-methyl-7-oxo-7,8-dihydropyrido[2,3-d]pyrimidin-2-yl)amino)pyridin-3-yl)piperazin-1-yl)propanoyl)-2-azaspiro[3.3]heptan-6-yl)amino)-N-(6-(dimethylamino)pyridazin-3-yl)-6-((methyl-d3)amino)nicotinamide]	> 7.30
CC(=O)c1c(C)c2cnc(Nc3ccc(N4CCN(C(CC(=O)N5CC6(CC(Nc7nc(NC(C)C)ccc7C(=O)Nc7cc(C)n(C)n7)C6)C5)C(F)(F)F)CC4)cn3)nc2n(C2CCCC2)c1=O (centres unmarked) [CPD-433, 2-((2-(3-(4-(6-((6-acetyl-8-cyclopentyl-5-methyl-7-oxo-7,8-dihydropyrido[2,3-d]pyrimidin-2-yl)amino)pyridin-3-yl)piperazin-1-yl)-4,4,4-trifluorobutanoyl)-2-azaspiro[3.3]heptan-6-yl)amino)-N-(1,5-dimethyl-1H-pyrazol-3-yl)-6-(isopropylamino)nicotinamide]	> 7.30
[2H]C([2H])([2H])Nc1ccc(C(=O)Nc2cc(C)n(C)n2)c(NC2CC3(C2)CN(C(=O)CC(N2CCN(c4ccc(Nc5ncc6c(C)c(C(C)=O)c(=O)n(C7CCCC7)c6n5)nc4)CC2)C(F)(F)F)C3)n1 (centres unmarked) [CPD-434, 2-((2-(3-(4-(6-((6-acetyl-8-cyclopentyl-5-methyl-7-oxo-7,8-dihydropyrido[2,3-d]pyrimidin-2-yl)amino)pyridin-3-yl)piperazin-1-yl)-4,4,4-trifluorobutanoyl)-2-azaspiro[3.3]heptan-6-yl)amino)-N-(1,5-dimethyl-1H-pyrazol-3-yl)-6-((methyl-d3)amino)nicotinamide]	> 7.30
[2H]C([2H])([2H])Nc1ccc(C(=O)Nc2cn(C)c(C3CC3)n2)c(NC2CC3(C2)CN(C(=O)CC(N2CCN(c4ccc(Nc5ncc6c(C)c(C(C)=O)c(=O)n(C7CCCC7)c6n5)nc4)CC2)C(F)(F)F)C3)n1 (centres unmarked) [CPD-435, 2-((2-(3-(4-(6-((6-acetyl-8-cyclopentyl-5-methyl-7-oxo-7,8-dihydropyrido[2,3-d]pyrimidin-2-yl)amino)pyridin-3-yl)piperazin-1-yl)-4,4,4-trifluorobutanoyl)-2-azaspiro[3.3]heptan-6-yl)amino)-N-(2-cyclopropyl-1-methyl-1H-imidazol-4-yl)-6-((methyl-d3)amino)nicotinamide]	> 7.30
CC(=O)c1c(C)c2cnc(Nc3ccc(N4CCN(C(CC(=O)N5CC6(CC(Nc7nc(NC(C)C)ccc7C(=O)Nc7cn(C)c(C8CC8)n7)C6)C5)C(F)(F)F)CC4)cn3)nc2n(C2CCCC2)c1=O (centres unmarked) [CPD-436, 2-((2-(3-(4-(6-((6-acetyl-8-cyclopentyl-5-methyl-7-oxo-7,8-dihydropyrido[2,3-d]pyrimidin-2-yl)amino)pyridin-3-yl)piperazin-1-yl)-4,4,4-trifluorobutanoyl)-2-azaspiro[3.3]heptan-6-yl)amino)-N-(2-cyclopropyl-1-methyl-1H-imidazol-4-yl)-6-(isopropylamino)nicotinamide]	> 7.30
CC(=O)c1c(C)c2cnc(Nc3ccc(N4CCC5(CC4)CC(C(=O)NC4CC6(C4)CC(Nc4nc(NC(C)C)ccc4C(=O)Nc4ccc(N(C)C)nn4)C6)C5)cn3)nc2n(C2CCCC2)c1=O (centres unmarked) [CPD-437, 7-(6-((6-acetyl-8-cyclopentyl-5-methyl-7-oxo-7,8-dihydropyrido[2,3-d]pyrimidin-2-yl)amino)pyridin-3-yl)-N-(6-((3-((6-(dimethylamino)pyridazin-3-yl)carbamoyl)-6-(isopropylamino)pyridin-2-yl)amino)spiro[3.3]heptan-2-yl)-7-azaspiro[3.5]nonane-2-carboxamide]	< 7.00
[2H]C([2H])([2H])Nc1ccc(C(=O)Nc2ccc(N(C)C)nn2)c(NC2CC3(CC(NC(=O)C(C)N4CCN(c5ccc(Nc6ncc7c(C)c(C(C)=O)c(=O)n(C8CCCC8)c7n6)nc5)CC4)C3)C2)n1 (centres unmarked) [CPD-438, 2-((6-(2-(4-(6-((6-acetyl-8-cyclopentyl-5-methyl-7-oxo-7,8-dihydropyrido[2,3-d]pyrimidin-2-yl)amino)pyridin-3-yl)piperazin-1-yl)propanamido)spiro[3.3]heptan-2-yl)amino)-N-(6-(dimethylamino)pyridazin-3-yl)-6-((methyl-d3)amino)nicotinamide]	7.00 to 7.30
[2H]C([2H])([2H])Nc1ccc(C(=O)Nc2ccc(N(C)C)nn2)c(NC2CC3(CC(NC(=O)C4CC45CCN(c4ccc(Nc6ncc7c(C)c(C(C)=O)c(=O)n(C8CCCC8)c7n6)nc4)CC5)C3)C2)n1 (centres unmarked) [CPD-439, 6-(6-((6-acetyl-8-cyclopentyl-5-methyl-7-oxo-7,8-dihydropyrido[2,3-d]pyrimidin-2-yl)amino)pyridin-3-yl)-N-(6-((3-((6-(dimethylamino)pyridazin-3-yl)carbamoyl)-6-((methyl-d3)amino)pyridin-2-yl)amino)spiro[3.3]heptan-2-yl)-6-azaspiro[2.5]octane-1-carboxamide]	> 7.30
CC(=O)c1c(C)c2cnc(Nc3ccc(N4CCN(CC(=O)NC5CC6(C5)CC(Nc5nc(NC(C)C)ccc5C(=O)Nc5cc7n(n5)CCC7)C6)CC4)cn3)nc2n(C2CCCC2)c1=O (centres unmarked) [CPD-440, 2-((6-(2-(4-(6-((6-acetyl-8-cyclopentyl-5-methyl-7-oxo-7,8-dihydropyrido[2,3-d]pyrimidin-2-yl)amino)pyridin-3-yl)piperazin-1-yl)acetamido)spiro[3.3]heptan-2-yl)amino)-N-(5,6-dihydro-4H-pyrrolo[1,2-b]pyrazol-2-yl)-6-(isopropylamino)nicotinamide]	> 7.30
